Laboratory results: ChEMBL document CHEMBL1201862, “PubChem BioAssay data set” (2004)
The source made the active and inactive calls.

Experiments:
[1] = inhibitors of clade B AD8 Env fusion, dose response, cell-based, cherry-pick (AID 652062); assay type: functional;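 further: luciferase signal from cell-cell fusion driven by HIV-1 clade B AD8 Env; potency is for inhibitors of fusion seen as a drop in luminescence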
[2] = Luminescence Cell-Based Dose Retest to Confirm Inhibitors of Cancer Stem Cells. [Related pubchem assays (depositor defined):AID2717, AID2721]; assay type: functional; conditions: Homo sapiens
[3] = molecular target: T1, Replicative DNA helicase DnaB (Mycobacterium tuberculosis, UniProt P9WMR3); test: DnaB intein splicing inhibitors, dose response, biochemical, cell-free fluorescence (AID 449749); assay type: functional
T1 sequence (P9WMR3 whole entry): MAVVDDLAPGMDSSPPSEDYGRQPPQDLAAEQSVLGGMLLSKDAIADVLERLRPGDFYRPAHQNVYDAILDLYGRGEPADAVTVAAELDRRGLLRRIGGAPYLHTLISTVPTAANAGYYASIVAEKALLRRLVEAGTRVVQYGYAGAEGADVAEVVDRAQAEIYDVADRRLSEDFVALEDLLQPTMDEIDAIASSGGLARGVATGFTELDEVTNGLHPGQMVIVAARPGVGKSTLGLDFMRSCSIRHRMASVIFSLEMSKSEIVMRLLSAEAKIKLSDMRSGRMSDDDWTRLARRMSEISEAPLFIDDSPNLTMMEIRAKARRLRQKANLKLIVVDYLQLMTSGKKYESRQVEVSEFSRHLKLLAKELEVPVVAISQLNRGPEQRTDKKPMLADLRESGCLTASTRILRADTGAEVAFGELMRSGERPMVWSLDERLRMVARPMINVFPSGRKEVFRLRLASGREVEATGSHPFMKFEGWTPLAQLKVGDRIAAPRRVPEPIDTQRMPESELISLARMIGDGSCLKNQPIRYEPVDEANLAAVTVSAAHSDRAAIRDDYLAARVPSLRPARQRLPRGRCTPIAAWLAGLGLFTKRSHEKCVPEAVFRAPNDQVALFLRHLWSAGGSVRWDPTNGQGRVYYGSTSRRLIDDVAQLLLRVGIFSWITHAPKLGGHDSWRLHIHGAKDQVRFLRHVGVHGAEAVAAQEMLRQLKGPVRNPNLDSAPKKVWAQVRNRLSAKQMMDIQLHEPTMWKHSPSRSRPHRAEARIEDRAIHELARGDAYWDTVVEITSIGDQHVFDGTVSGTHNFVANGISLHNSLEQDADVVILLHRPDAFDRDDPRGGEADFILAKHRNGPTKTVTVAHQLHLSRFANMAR

Protein RecA = molecular target: T2, Protein RecA (Mycobacterium tuberculosis, UniProt P9WHJ3); test: Fluorescence Cell-Free Homogeneous Dose Retest to Identify Inhibitors of RecA-Intein Splicing Activity. [Related pubchem assays (depositor defined):AID2097, AID2223, AID489010, AID492950]; assay type: functional
T2 sequence (P9WHJ3 whole entry): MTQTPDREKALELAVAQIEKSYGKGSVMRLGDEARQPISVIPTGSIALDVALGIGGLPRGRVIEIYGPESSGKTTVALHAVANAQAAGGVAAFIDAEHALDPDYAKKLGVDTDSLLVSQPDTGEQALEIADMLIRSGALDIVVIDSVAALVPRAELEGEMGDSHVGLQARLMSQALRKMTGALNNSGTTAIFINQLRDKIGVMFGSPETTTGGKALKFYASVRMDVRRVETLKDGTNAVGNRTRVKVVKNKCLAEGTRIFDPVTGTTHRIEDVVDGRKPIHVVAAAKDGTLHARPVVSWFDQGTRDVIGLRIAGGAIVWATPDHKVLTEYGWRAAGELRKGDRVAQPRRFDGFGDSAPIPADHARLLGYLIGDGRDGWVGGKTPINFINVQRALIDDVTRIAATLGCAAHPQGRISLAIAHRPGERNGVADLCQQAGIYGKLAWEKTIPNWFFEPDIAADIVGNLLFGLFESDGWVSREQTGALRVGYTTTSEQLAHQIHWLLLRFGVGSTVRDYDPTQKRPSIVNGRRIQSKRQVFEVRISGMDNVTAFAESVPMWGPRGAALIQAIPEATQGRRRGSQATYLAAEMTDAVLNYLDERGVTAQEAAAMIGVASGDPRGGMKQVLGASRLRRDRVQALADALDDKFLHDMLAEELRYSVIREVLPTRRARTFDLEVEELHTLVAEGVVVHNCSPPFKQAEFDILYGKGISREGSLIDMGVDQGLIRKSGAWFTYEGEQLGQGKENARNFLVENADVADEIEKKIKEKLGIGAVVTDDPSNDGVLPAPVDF

Vero [4] = test: cells; assay type: functional; conditions: Chlorocebus sabaeus
Vero [5] = test: cells; assay type: functional, cell-based; conditions: Chlorocebus sabaeus
[6] = molecular target: T3, Histone-lysine N-methyltransferase NSD2 (Homo sapiens, UniProt O96028); assay type: biochemical
T3 sequence (O96028 whole entry): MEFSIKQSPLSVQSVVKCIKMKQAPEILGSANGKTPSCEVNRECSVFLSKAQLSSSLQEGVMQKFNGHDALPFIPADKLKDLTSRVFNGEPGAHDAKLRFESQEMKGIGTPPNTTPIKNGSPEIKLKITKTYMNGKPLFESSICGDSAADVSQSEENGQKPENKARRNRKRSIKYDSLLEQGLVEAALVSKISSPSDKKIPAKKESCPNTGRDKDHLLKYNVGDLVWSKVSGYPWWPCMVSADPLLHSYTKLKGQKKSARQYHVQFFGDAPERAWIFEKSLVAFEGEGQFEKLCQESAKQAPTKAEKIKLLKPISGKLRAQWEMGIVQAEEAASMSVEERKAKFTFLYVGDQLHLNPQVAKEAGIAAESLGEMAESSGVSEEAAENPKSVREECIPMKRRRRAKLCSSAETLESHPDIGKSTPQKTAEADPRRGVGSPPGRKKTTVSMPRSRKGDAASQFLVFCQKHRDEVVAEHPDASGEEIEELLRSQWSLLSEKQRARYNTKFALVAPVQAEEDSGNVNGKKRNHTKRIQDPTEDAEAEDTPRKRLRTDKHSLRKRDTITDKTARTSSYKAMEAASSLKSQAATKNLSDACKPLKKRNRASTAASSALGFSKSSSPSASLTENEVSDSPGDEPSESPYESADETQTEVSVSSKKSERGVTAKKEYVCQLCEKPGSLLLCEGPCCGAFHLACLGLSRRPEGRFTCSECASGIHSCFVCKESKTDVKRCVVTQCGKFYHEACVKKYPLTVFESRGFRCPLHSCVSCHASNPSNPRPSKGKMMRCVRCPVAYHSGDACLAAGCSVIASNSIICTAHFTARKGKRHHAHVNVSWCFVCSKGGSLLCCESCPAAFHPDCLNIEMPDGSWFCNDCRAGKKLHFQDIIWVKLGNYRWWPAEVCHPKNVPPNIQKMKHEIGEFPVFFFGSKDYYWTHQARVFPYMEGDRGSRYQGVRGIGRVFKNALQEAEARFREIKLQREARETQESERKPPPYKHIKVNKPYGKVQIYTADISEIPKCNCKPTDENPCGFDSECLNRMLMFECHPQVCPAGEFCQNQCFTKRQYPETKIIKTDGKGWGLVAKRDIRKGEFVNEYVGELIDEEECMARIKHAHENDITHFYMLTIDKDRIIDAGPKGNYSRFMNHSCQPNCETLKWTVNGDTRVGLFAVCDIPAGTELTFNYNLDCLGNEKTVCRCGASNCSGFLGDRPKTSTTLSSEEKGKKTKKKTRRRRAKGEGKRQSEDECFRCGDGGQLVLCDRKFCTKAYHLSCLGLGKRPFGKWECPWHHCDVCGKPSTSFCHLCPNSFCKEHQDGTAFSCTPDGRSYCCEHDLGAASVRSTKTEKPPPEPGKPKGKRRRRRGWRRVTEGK

HEK293 = test: inhibitors of LMP1-driven NF-kB reporter, dose response, cell-based, HEK293, luciferase, cherry-pick (AID 588343); assay type: functional; conditions: Homo sapiens
Large T antigen = Large T antigen (Simian virus 40, UniProt P03070); assay type: functional, Betapolyomavirus macacae;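 further: Confirmatory-stage PubChem screen for compounds that inhibit SV40 T antigen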
Chain of Large T antigen (P03070 whole entry): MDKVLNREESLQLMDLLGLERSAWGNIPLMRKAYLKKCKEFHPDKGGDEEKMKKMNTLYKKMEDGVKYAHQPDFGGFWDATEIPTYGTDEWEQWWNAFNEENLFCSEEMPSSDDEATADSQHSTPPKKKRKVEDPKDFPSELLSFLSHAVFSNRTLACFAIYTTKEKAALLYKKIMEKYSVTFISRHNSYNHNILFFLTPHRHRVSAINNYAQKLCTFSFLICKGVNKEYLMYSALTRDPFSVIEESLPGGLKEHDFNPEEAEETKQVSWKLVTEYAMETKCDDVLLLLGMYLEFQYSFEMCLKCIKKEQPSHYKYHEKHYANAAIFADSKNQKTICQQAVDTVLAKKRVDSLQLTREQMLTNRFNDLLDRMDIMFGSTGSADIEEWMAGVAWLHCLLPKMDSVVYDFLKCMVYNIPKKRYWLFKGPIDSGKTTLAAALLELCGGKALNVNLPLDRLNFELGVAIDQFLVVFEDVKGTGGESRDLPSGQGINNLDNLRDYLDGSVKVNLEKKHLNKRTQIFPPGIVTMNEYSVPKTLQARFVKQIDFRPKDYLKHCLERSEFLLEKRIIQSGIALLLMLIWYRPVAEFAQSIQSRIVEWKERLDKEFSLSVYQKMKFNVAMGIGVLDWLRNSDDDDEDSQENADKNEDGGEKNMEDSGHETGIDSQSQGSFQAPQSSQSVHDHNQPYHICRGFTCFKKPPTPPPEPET

H9c2 = test: cells; assay type: functional, cell-based; conditions: Rattus norvegicus, H9c2, Myocardium;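 further: confirmatory concentration-response retest of ultra-high-throughput screening hits for modulation of myocardial damage; cell death induced by hydrogen peroxide oxidative stress; compound pretreatment for 60 min then peroxide exposure for 2 h; potency is for protecting the cells against peroxide damage rather than for killing them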
Paired box protein Pax-8 = Paired box protein Pax-8 (Homo sapiens, UniProt Q06710); test: inhibitors of PAX8-driven TPO luciferase reporter, dose response, RMG-I cells, cherry-pick (AID 687027); assay type: functional, cell-based;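 further: luciferase reporter driven by Pax8 target thyroperoxidase promoter measured by SteadyGlo luminescence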
Chain of Paired box protein Pax-8 (Q06710 whole entry): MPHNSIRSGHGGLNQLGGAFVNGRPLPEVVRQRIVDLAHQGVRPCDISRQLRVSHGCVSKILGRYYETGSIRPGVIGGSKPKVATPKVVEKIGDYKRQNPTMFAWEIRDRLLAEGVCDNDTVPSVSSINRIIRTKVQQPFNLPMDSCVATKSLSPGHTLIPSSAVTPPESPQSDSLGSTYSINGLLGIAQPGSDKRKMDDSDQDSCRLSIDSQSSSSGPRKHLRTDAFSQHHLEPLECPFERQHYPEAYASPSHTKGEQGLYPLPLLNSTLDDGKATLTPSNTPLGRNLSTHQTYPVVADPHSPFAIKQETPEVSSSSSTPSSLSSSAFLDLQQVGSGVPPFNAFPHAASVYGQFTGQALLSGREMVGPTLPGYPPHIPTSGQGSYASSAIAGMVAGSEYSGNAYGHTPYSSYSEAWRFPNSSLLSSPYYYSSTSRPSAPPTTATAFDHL

[7] = control 3'UTR Renilla luciferase suppression, dose response, counter-screen for Shn3 inhibitor project, cell-based, Clone20-Shn3RL, cherry-picked (AID 624133); assay type: functional
[8] = Shn3 3'UTR reporter inhibitors, dose response, cell-based, Clone20 osteoblasts, firefly luciferase, cherry-picked (AID 624132); assay type: functional;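 further: firefly luciferase luminescence from reporter carrying the Shn3 3'UTR in osteoblasts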
[9] = molecular target: T4, Rac GTPase-activating protein 1 (Homo sapiens, UniProt Q9H0H5); test: MgcRacGAP GTPase-activating activity inhibitors, confirmation, biochemical, ADP Hunter fluorescence, primary and confirmatory (AID 624330); assay type: functional
T4 sequence (Q9H0H5 whole entry): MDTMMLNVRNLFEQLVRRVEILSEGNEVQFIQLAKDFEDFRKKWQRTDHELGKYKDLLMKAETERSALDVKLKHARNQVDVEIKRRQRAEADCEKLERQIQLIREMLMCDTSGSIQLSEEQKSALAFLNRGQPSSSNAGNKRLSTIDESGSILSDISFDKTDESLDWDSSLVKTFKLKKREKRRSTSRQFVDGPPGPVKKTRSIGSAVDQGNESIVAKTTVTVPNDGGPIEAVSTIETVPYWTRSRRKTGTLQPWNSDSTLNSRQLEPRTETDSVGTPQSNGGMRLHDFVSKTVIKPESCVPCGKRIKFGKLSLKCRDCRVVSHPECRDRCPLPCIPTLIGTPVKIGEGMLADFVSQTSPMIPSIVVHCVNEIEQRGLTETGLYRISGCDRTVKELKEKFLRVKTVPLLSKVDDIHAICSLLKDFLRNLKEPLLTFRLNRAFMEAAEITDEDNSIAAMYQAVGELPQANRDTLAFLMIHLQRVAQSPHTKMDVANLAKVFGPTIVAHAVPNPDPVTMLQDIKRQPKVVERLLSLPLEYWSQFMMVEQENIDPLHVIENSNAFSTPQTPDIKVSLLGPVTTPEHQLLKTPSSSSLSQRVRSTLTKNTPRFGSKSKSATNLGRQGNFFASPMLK

[10] = intracellular Trypanosoma cruzi inhibitors in host cells – cell-based, plate reader, cherry-pick samples, set 3, dose response (AID 651818); assay type: functional;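 further: compounds incubated with infected cells for about four days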
[11] = inhibitors of HIV Env-driven cell fusion, dose response, cherry-pick (AID 652057); assay type: functional, cell-based
[12] = molecular target: T5, Heat shock factor protein 1 (Mus musculus, UniProt P38532); test: HSF1 potentiators in luciferase reporter cells, confirmation, cell-based, NIH3T3, luminescence, dose retest (AID 435004); assay type: functional;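 further: stress induced by proteasome inhibitor MG132 added 30 min after compound; luciferase reporter driven by HSF1 response element in NIH3T3 cells; actives raise luminescence as potentiators of the MG132 stress response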
T5 sequence (P38532 whole entry): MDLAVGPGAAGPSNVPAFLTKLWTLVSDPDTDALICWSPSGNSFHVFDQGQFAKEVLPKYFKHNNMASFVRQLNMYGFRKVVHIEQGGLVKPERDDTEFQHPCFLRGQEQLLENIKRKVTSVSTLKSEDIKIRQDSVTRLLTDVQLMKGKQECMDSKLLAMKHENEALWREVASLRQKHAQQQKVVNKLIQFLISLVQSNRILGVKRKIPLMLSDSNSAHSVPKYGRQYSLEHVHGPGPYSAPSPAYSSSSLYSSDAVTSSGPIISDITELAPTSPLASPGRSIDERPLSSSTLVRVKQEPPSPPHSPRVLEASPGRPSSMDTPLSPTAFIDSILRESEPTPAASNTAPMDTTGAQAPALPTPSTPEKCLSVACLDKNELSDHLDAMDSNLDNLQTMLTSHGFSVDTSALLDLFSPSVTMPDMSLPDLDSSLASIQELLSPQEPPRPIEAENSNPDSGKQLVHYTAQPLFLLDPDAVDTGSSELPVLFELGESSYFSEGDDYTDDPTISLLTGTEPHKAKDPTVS

SMILES: Cc1ccc(S(=O)(=O)N(C)c2ccc(C(=O)N3CCN(Cc4ccc5c(c4)OCO5)CC3)cc2)cc1
- AC50 [1]: 14 µM (active)

SMILES: COc1cccc(/C=C/C(=O)c2ccc(NS(=O)(=O)c3ccc(C)cc3)cc2)c1
- AC50 [2]: 2.91 µM (active)
- AC50 [3]: 9.15 µM (active)
- EC50 (Protein RecA): 15.4 µM (active)
- CC50 (Vero [4]): 20.4 µM (active)
- IC50 (Vero [5]): 24 µM (active)

SMILES: CCN(CC)CCCN(Cc1cc2cc(OC)c(OC)cc2nc1O)C(=O)Nc1ccccc1
- AC50 [6]: > 20 µM (inactive)

SMILES: COc1ccc(-c2cc3c(=O)n(CC(=O)NCCCN4CCN(Cc5ccccc5)CC4)ncn3n2)cc1
- AC50 (HEK293): 2.22 µM (active)

SMILES: CC(C)c1ccc(S(=O)(=O)N2CCN(CC(=O)c3ccc(O)c(O)c3)CC2)cc1
- AC50 [6]: 4.68 µM (active)
- IC50 (Large T antigen): 23.6 µM (active)
- IC50 (H9c2): > 79 µM (inactive)

SMILES: CC(C)(O)/C=C/C(=O)C(C)(O)C1C(O)CC2(C)C3CC=C4C(C=C(O)C(=O)C4(C)C)C3(C)C(=O)CC12C (stereo not drawn)
- AC50 (Paired box protein Pax-8): < 0.26 µM (active)
- CC50 (Vero [4]): 0.08 µM (active)
- AC50 [7]: 4.47 µM (active)
- IC50 (Vero [5]): > 25 µM (active)
- AC50 [8]: 1.83 µM (active)

SMILES: CN(C)c1ccc2cc(S(=O)(=O)O)cc(O)c2c1
- AC50 [6]: 0.747 µM (active)
- IC50 [9]: 42.9 µM (active)

SMILES: C[C@@H]1CN([C@@H](C)CO)C(=O)c2cccc(NC(=O)CCCCCC(=O)Nc3ccccc3N)c2O[C@H]1CN(C)Cc1ccc2c(c1)OCO2
- AC50 [10]: 2.58 µM (active)

SMILES: C[C@H](CO)N1C[C@H](C)[C@H](CN(C)Cc2ccc(C(=O)Nc3ccccc3N)cc2)Oc2ccc(NC(=O)Cc3ccccc3)cc2CC1=O
- AC50 [10]: 2.95 µM (active)

SMILES: C[C@H](CO)N1C[C@H](C)[C@@H](CN(C)Cc2ccncc2)Oc2c(NC(=O)C3CCOCC3)cccc2C1=O
- AC50 [10]: 20 µM (inactive)

SMILES: Cc1ccc(S(=O)(=O)Nc2cccc3c2O[C@@H](CN(C)S(=O)(=O)c2ccc(Cl)cc2)[C@@H](C)CN([C@H](C)CO)C3=O)cc1
- AC50 [10]: 8.14 µM (active)

SMILES: C[C@@H]1CN([C@@H](C)CO)C(=O)c2cccc(NC(=O)Nc3ccc(C(F)(F)F)cc3)c2O[C@@H]1CN(C)S(=O)(=O)c1ccc(F)cc1
- AC50 [10]: 4.16 µM (active)

SMILES: O=C(C[C@@H]1CC[C@H]2[C@@H](COC[C@@H](O)CN2C(=O)c2ccc(F)cc2)O1)NC1Cc2ccccc2C1
- AC50 [11]: 1.62 µM (active)
- AC50 [1]: 3.86 µM (active)

SMILES: COc1ccc(/C=C\c2nc(=O)c3ccccc3o2)cc1
- EC50 [12]: 20.9 µM (active)
- CC50 (Vero [4]): 16.6 µM (active)
- IC50 (Vero [5]): 19.9 µM (active)
